# Values joined by “and” are separate entries in the source; they are usually repeats but may differ in a detail not shown here. Identical values can stand only once. Counter-ions that a name gives are not always drawn.
# Tests used:
# Large Crabgrass = experiment: Pre-emergence herbicide test, large crabgrass; type: in vivo, Digitaria sanguinalis
# Procedure: (§1) In this evaluation, each compound to be tested was dissolved in a 1:1 mixture of acetone and ethanol containing a small amount of Toximul R and Toximul S (each a sulfonate/nonionic blend produced by Stepan Chemical Company, Northfield, Illinois). The solution was then diluted with deionized water to a composition of the following concentrations, by weight: Plant species used as indicators of herbicidal activity were planted in galvanized pans (flats) 31.5 cm. long, 21.5 cm. wide, and 8.0 cm. deep. The bottoms of the flats had holes to facilitate drainage. The soil used was a 1:1 ratio by volume of masonry sand and shredded top soil. Seeds of seven indicator species were planted in rows perpendicular to the long axis of the flat, one species per row, and covered with 0.5 to 1.0 cm. of sterilized soil. Indicator species and approximate number of seeds planted were as follows: Flats that were to receive preemergence treatments were planted one day prior to, or on the same day treatments were applied. Flats that were to receive postemergence treatments were planted 9 days prior to treatment and placed in a growth chamber until the day of treatment. In the growth chamber, flats received 12 to 18 hours of light per day and were subject to temperatures of 75° to 85° F. The formulated test compound was applied uniformly to the indicator species with a modified DeVilbiss atomizer using air pressure of 3 to 5 psi. Each flat received 12.5 ml. of spray solution which was equal to 200 gallons/acre total spray volume. Plants were maintained in a greenhouse after treatment. Herbicidal effects of chemicals were evaluated by two injury rating systems 18 days after preemergence applications and 14 days after postemergence applications. The degree of plant injury was based on a 1 to 5 scale and a single numerical rating was assigned to each test species as follows: […]
# Foxtail [1] = experiment: Pre-emergence herbicide test, foxtail; type: in vivo, Setaria italica
# Procedure: as §1
# Velvetleaf = experiment: Pre-emergence herbicide test, velvetleaf; type: in vivo, Abutilon theophrasti
# Procedure: as §1
# Pigweed = experiment: Post-emergence herbicide test, pigweed; type: in vivo, Amaranthus retroflexus
# Procedure: as §1
# Foxtail [2] = experiment: Post-emergence herbicide test, foxtail; type: in vivo, Setaria italica
# Procedure: as §1
# Soybean = experiment: Pre-emergence herbicide test, soybean; type: in vivo
# Procedure: as §1, with “soil.” for “soil. Seeds of seven indicator species were planted in rows perpendicular to the long axis of the flat, one species per row, and covered with 0.5 to 1.0 cm. of sterilized soil. Indicator species and approximate number of seeds planted were as follows:”
# Wheat = experiment: Pre-emergence herbicide test, wheat; type: in vivo
# Procedure: as §1, with “soil.” for “soil. Seeds of seven indicator species were planted in rows perpendicular to the long axis of the flat, one species per row, and covered with 0.5 to 1.0 cm. of sterilized soil. Indicator species and approximate number of seeds planted were as follows:”
# Alfalfa = experiment: Pre-emergence herbicide test, alfalfa; type: in vivo
# Procedure: as §1, with “soil.” for “soil. Seeds of seven indicator species were planted in rows perpendicular to the long axis of the flat, one species per row, and covered with 0.5 to 1.0 cm. of sterilized soil. Indicator species and approximate number of seeds planted were as follows:”
# Sugar Beet = experiment: Pre-emergence herbicide test, sugar beet; type: in vivo
# Procedure: as §1, with “soil.” for “soil. Seeds of seven indicator species were planted in rows perpendicular to the long axis of the flat, one species per row, and covered with 0.5 to 1.0 cm. of sterilized soil. Indicator species and approximate number of seeds planted were as follows:”
# Rice = experiment: Pre-emergence herbicide test, rice; type: in vivo
# Procedure: as §1, with “soil.” for “soil. Seeds of seven indicator species were planted in rows perpendicular to the long axis of the flat, one species per row, and covered with 0.5 to 1.0 cm. of sterilized soil. Indicator species and approximate number of seeds planted were as follows:”
# Tomato = experiment: Pre-emergence herbicide test, tomato; type: in vivo
# Procedure: as §1, with “soil.” for “soil. Seeds of seven indicator species were planted in rows perpendicular to the long axis of the flat, one species per row, and covered with 0.5 to 1.0 cm. of sterilized soil. Indicator species and approximate number of seeds planted were as follows:”
# Lambsquarter = experiment: Pre-emergence herbicide test, lambsquarter; type: in vivo
# Procedure: as §1, with “soil.” for “soil. Seeds of seven indicator species were planted in rows perpendicular to the long axis of the flat, one species per row, and covered with 0.5 to 1.0 cm. of sterilized soil. Indicator species and approximate number of seeds planted were as follows:”
# Mustard = experiment: Pre-emergence herbicide test, mustard; type: in vivo
# Procedure: as §1, with “soil.” for “soil. Seeds of seven indicator species were planted in rows perpendicular to the long axis of the flat, one species per row, and covered with 0.5 to 1.0 cm. of sterilized soil. Indicator species and approximate number of seeds planted were as follows:”
# Wild Oat = experiment: Pre-emergence herbicide test, wild oat; type: in vivo
# Procedure: as §1, with “soil.” for “soil. Seeds of seven indicator species were planted in rows perpendicular to the long axis of the flat, one species per row, and covered with 0.5 to 1.0 cm. of sterilized soil. Indicator species and approximate number of seeds planted were as follows:”
# Jimsonweed = experiment: Pre-emergence herbicide test, jimsonweed; type: in vivo
# Procedure: as §1, with “soil.” for “soil. Seeds of seven indicator species were planted in rows perpendicular to the long axis of the flat, one species per row, and covered with 0.5 to 1.0 cm. of sterilized soil. Indicator species and approximate number of seeds planted were as follows:”
smiles,measurement,setting,value
"O=[N+]([O-])c1cc(Cl)cc2c1NC(O)(C(F)F)N2 (stereo not shown) [Example 5, 2-Hydroxy-2-(Difluoromethyl)-4-Nitro-6-Chlorobenzimidazoline, Calcium Salt]",plant injury rating,Large Crabgrass; 8 lb/A,3RS
same,plant injury rating,Foxtail [1]; 8 lb/A,3R
same,plant injury rating,Velvetleaf; 8 lb/A,3RS
same,plant injury rating,Pigweed; 1 lb/A,2S
same,plant injury rating,Pigweed; 2 lb/A,3BS
same,plant injury rating,Pigweed; 4 lb/A,3BS
same,plant injury rating,Pigweed; 8 lb/A,4BS
same,plant injury rating,Foxtail [2]; 1 lb/A,4BS
same,plant injury rating,Foxtail [2]; 2 lb/A,4BS
same,plant injury rating,Foxtail [2]; 4 lb/A,3BS
same,plant injury rating,Foxtail [2]; 8 lb/A,5D
"O=[N+]([O-])c1cc(C(F)(F)F)cc2c1NC(O)(C(F)(F)C(F)F)N2 (stereo not shown) [Example 2, 2-Hydroxy-2-(1,1,2,2-Tetrafluoroethyl)-4-Nitro-6-(Trifluoromethyl)Benzimidazoline, Sodium Salt, and Hydrate]",plant injury rating,Soybean; 1/2 lb/A,1 (no injury)
same,plant injury rating,Soybean; 1/4 lb/A,1 (no injury)
same,plant injury rating,Soybean; 1 lb/A,1 (no injury)
same,plant injury rating,Soybean; 2 lb/A,1 (no injury)
same,plant injury rating,Soybean; 4 lb/A,2B
same,plant injury rating,Wheat; 1/2 lb/A,1 (no injury)
same,plant injury rating,Wheat; 1/4 lb/A,1 (no injury)
same,plant injury rating,Wheat; 1 lb/A,1 (no injury)
same,plant injury rating,Wheat; 2 lb/A,1 (no injury)
same,plant injury rating,Wheat; 4 lb/A,3BS
same,plant injury rating,Alfalfa; 1/2 lb/A,3SR
same,plant injury rating,Alfalfa; 1/4 lb/A,1 (no injury)
same,plant injury rating,Alfalfa; 2 lb/A,5D
same,plant injury rating,Alfalfa; 4 lb/A,5N
same,plant injury rating,Sugar Beet; 1/2 lb/A,2S
same,plant injury rating,Sugar Beet; 1/4 lb/A,1 (no injury)
same,plant injury rating,Sugar Beet; 2 lb/A,5D
same,plant injury rating,Sugar Beet; 4 lb/A,5N
same,plant injury rating,Rice; 1/2 lb/A,1 (no injury)
same,plant injury rating,Rice; 1/4 lb/A,1 (no injury)
same,plant injury rating,Rice; 1 lb/A,1 (no injury)
same,plant injury rating,Rice; 2 lb/A,2S
same,plant injury rating,Rice; 4 lb/A,2SB
same,plant injury rating,Tomato; 1/2 lb/A,2S
same,plant injury rating,Tomato; 1/4 lb/A,1 (no injury)
same,plant injury rating,Tomato; 2 lb/A,1 (no injury)
same,plant injury rating,Tomato; 4 lb/A,4BS
same,plant injury rating,Lambsquarter; 1/2 lb/A,2S
same,plant injury rating,Lambsquarter; 1/4 lb/A,1 (no injury)
same,plant injury rating,Lambsquarter; 2 lb/A,5D
same,plant injury rating,Lambsquarter; 4 lb/A,5D
same,plant injury rating,Large Crabgrass; 1/2 lb/A,1 (no injury)
same,plant injury rating,Large Crabgrass; 1/4 lb/A,1 (no injury)
same,plant injury rating,"Large Crabgrass; 1 lb/A, Hydrate",3S and 2S
same,plant injury rating,Large Crabgrass; 2 lb/A,4RS
same,plant injury rating,Large Crabgrass; 4 lb/A,4RS
same,plant injury rating,Large Crabgrass; 8 lb/A,5N
same,plant injury rating,Mustard; 1/2 lb/A,2S
same,plant injury rating,Mustard; 1/4 lb/A,1 (no injury)
same,plant injury rating,Mustard; 1 lb/A,4B
same,plant injury rating,Mustard; 2 lb/A,5D
same,plant injury rating,Mustard; 4 lb/A,5D
same,plant injury rating,Foxtail [1]; 1/2 lb/A,1 (no injury)
same,plant injury rating,Foxtail [1]; 1/4 lb/A,1 (no injury)
same,plant injury rating,Foxtail [1]; 1 lb/A,1 (no injury)
same,plant injury rating,Foxtail [1]; 2 lb/A,2S
same,plant injury rating,Foxtail [1]; 4 lb/A,2S
same,plant injury rating,Foxtail [1]; 8 lb/A,5N
same,plant injury rating,Wild Oat; 1/2 lb/A,1 (no injury)
same,plant injury rating,Wild Oat; 1/4 lb/A,1 (no injury)
same,plant injury rating,Wild Oat; 1 lb/A,1 (no injury)
same,plant injury rating,Wild Oat; 2 lb/A,2 (slight injury)
same,plant injury rating,Wild Oat; 4 lb/A,5 (death)
same,plant injury rating,Velvetleaf; 1/2 lb/A,1 (no injury)
same,plant injury rating,Velvetleaf; 1/4 lb/A,1 (no injury)
same,plant injury rating,Velvetleaf; 1 lb/A,1 (no injury)
same,plant injury rating,Velvetleaf; 2 lb/A,2S
same,plant injury rating,Velvetleaf; 4 lb/A,4BS
same,plant injury rating,Velvetleaf; 8 lb/A,5D
same,plant injury rating,Jimsonweed; 1/2 lb/A,1 (no injury)
same,plant injury rating,Jimsonweed; 1/4 lb/A,1 (no injury)
same,plant injury rating,Jimsonweed; 1 lb/A,1 (no injury)
same,plant injury rating,Jimsonweed; 2 lb/A,3BS
same,plant injury rating,Jimsonweed; 4 lb/A,5D
same,plant injury rating,Pigweed; 1/2 lb/A,4BS
same,plant injury rating,Pigweed; 1/4 lb/A,3BS
same,plant injury rating,Pigweed; 1 lb/A,5D
same,plant injury rating,Pigweed; 2 lb/A,5D
same,plant injury rating,Pigweed; 4 lb/A,5D
same,plant injury rating,Pigweed; 8 lb/A,5D
same,plant injury rating,Foxtail [2]; 1/2 lb/A,3BS
same,plant injury rating,Foxtail [2]; 1/4 lb/A,3BS
same,plant injury rating,Foxtail [2]; 1 lb/A,4BS
same,plant injury rating,Foxtail [2]; 2 lb/A,4BS
same,plant injury rating,Foxtail [2]; 4 lb/A,4BS
same,plant injury rating,Foxtail [2]; 8 lb/A,5D
"O=[N+]([O-])c1cc(C(F)(F)F)cc2c1NC(O)(C(F)(F)C(F)F)N2O (stereo not shown) [Example 12, 1,2-Dihydroxy-2-(1,1,2,2-Tetrafluoroethyl)-4-Nitro-6-(Trifluoromethyl)Benzimidazoline]",plant injury rating,Soybean; 1/2 lb/A,1 (no injury)
same,plant injury rating,Soybean; 1 lb/A,1 (no injury)
same,plant injury rating,Soybean; 2 lb/A,1 (no injury)
same,plant injury rating,Wheat; 1/2 lb/A,1 (no injury)
same,plant injury rating,Wheat; 1 lb/A,1 (no injury)
same,plant injury rating,Wheat; 2 lb/A,1 (no injury)
same,plant injury rating,Alfalfa; 1/2 lb/A,1 (no injury)
same,plant injury rating,Alfalfa; 1 lb/A,1 (no injury)
same,plant injury rating,Alfalfa; 2 lb/A,3SB
same,plant injury rating,Sugar Beet; 1/2 lb/A,1 (no injury)
same,plant injury rating,Sugar Beet; 1 lb/A,1 (no injury)
same,plant injury rating,Sugar Beet; 2 lb/A,3S
same,plant injury rating,Rice; 1/2 lb/A,1 (no injury)
same,plant injury rating,Rice; 1 lb/A,1 (no injury)
same,plant injury rating,Rice; 2 lb/A,1 (no injury)
same,plant injury rating,Tomato; 1/2 lb/A,1 (no injury)
same,plant injury rating,Tomato; 1 lb/A,1 (no injury)
same,plant injury rating,Tomato; 2 lb/A,1 (no injury)
same,plant injury rating,Lambsquarter; 1/2 lb/A,1 (no injury)
same,plant injury rating,Lambsquarter; 1 lb/A,3SB
same,plant injury rating,Lambsquarter; 2 lb/A,3S
same,plant injury rating,Large Crabgrass; 1/2 lb/A,1 (no injury)
same,plant injury rating,Large Crabgrass; 1 lb/A,2S
same,plant injury rating,Large Crabgrass; 2 lb/A,4SB
same,plant injury rating,Large Crabgrass; 8 lb/A,4RS
same,plant injury rating,Mustard; 1/2 lb/A,1 (no injury)
same,plant injury rating,Mustard; 1 lb/A,1 (no injury)
same,plant injury rating,Mustard; 2 lb/A,2S
same,plant injury rating,Foxtail [1]; 1/2 lb/A,1 (no injury)
same,plant injury rating,Foxtail [1]; 1 lb/A,1 (no injury)
same,plant injury rating,Foxtail [1]; 2 lb/A,1 (no injury)
same,plant injury rating,Foxtail [1]; 8 lb/A,2S
same,plant injury rating,Wild Oat; 1/2 lb/A,1 (no injury)
same,plant injury rating,Wild Oat; 1 lb/A,1 (no injury)
same,plant injury rating,Wild Oat; 2 lb/A,2B
same,plant injury rating,Velvetleaf; 1/2 lb/A,1 (no injury)
same,plant injury rating,Velvetleaf; 1 lb/A,1 (no injury)
same,plant injury rating,Velvetleaf; 2 lb/A,1 (no injury)
same,plant injury rating,Velvetleaf; 8 lb/A,3BS
same,plant injury rating,Jimsonweed; 1/2 lb/A,1 (no injury)
same,plant injury rating,Jimsonweed; 1 lb/A,1 (no injury)
same,plant injury rating,Jimsonweed; 2 lb/A,1 (no injury)
same,plant injury rating,Pigweed; 1/4 lb/A,3BS
same,plant injury rating,Pigweed; 1/8 lb/A,3BS
same,plant injury rating,Pigweed; 1 lb/A,5D
same,plant injury rating,Pigweed; 2 lb/A,5D
same,plant injury rating,Pigweed; 8 lb/A,5D
same,plant injury rating,Foxtail [2]; 1/4 lb/A,2B
same,plant injury rating,Foxtail [2]; 1/8 lb/A,2S
same,plant injury rating,Foxtail [2]; 1 lb/A,4BS
same,plant injury rating,Foxtail [2]; 2 lb/A,4BS
same,plant injury rating,Foxtail [2]; 8 lb/A,3BS
